This note sets out measurements from ChEMBL document CHEMBL4811312, “SAR towards indoline and 3-azaindoline classes of IDO1 inhibitors” (Bioorg Med Chem Lett, 2021).

In series [1] the target is T1, Indoleamine 2,3-dioxygenase 1 (Homo sapiens, UniProt P14902). Kind of series: Inhibition of human IDO1 in human Hela cells. The format is cell-based.
Target sequence in this assay (P14902 whole entry): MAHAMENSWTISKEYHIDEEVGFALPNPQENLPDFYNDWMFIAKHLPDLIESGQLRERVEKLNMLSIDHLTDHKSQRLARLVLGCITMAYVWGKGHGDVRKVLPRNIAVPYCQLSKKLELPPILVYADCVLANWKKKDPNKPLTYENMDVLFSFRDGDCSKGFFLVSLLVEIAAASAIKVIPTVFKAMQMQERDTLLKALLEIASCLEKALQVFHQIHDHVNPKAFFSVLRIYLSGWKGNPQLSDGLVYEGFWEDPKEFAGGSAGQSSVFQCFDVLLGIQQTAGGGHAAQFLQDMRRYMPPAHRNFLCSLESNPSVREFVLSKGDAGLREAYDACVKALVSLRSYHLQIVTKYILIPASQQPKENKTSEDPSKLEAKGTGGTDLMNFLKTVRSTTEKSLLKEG
For series [2], the target named is T1, Indoleamine 2,3-dioxygenase 1. Description: Inhibition of human IDO1 in HEK293 cells at 10 uM relative to control. The format is cell-based.
Target sequence in this assay (P14902 whole entry, looked up): as the sequence (P14902 whole entry) above
Series [3] can be described thus: Unbound clearance in Wistar Han rats at 0.05 mg/kg, iv. The format is ADME, organism-based. Conditions: rat, in vivo.
A short description of series [4]: Clearance in Wistar Han rats at 0.05 mg/kg, iv. The format is ADME, organism-based. Conditions: rat, in vivo.
A short description of series [5]: Mean residence time in Wistar Han rat at 0.5 mg/kg, iv. As to conditions: in vivo. The format is ADME, organism-based.
Series [6] addresses T1, Indoleamine 2,3-dioxygenase 1. Kind of series: Inhibition of human IDO1 by human whole blood assay. The format is tissue-based.
Target sequence in this assay (P14902 whole entry): as above
For series [7] the target is unchanged. Kind of series: Inhibition of human IDO1 assessed as unbound compound concentration by human whole blood assay. The format is tissue-based.
Target sequence in this assay (P14902 whole entry): as above
Series [8] is described as follows: Unbound clearance in Beagle dog at 0.05 mg/kg, iv. Conditions: in vivo. The format is ADME, organism-based, Canis lupus familiaris.
The nature of series [9]: Clearance in Beagle dog at 0.05 mg/kg, iv. The format is ADME, organism-based, Canis lupus familiaris. Conditions: in vivo.
Series [10] is described as follows: Mean residence time in Beagle dog at 0.5 mg/kg, iv. The format is ADME, organism-based, Canis lupus familiaris. As to conditions: in vivo.
The target in series [11] is T1, Indoleamine 2,3-dioxygenase 1. Kind of series: Inhibition of human IDO1 in human Hela cells at 10 uM relative to control. The format is cell-based.
Target sequence in this assay (P14902 whole entry, looked up): as the sequence (P14902 whole entry) above

Structures are written as SMILES.

Compound `Cc1nccc(N2CCc3nc(C4(C(=O)Nc5ccc(Cl)cc5)CCC4)ccc32)n1` returned an IC50 in series [1] of 12.5 nM.

In [2], `CC(C)CC(=O)N1CCc2cc(CNC(=O)c3cccnc3)ccc21` came in with an inhibition of 86%.

For the compound `O=C(OC1CC1)N1CCc2nc(C3(C(=O)Nc4ccc(F)cc4)CCC3)ccc21`, half-maximal inhibition in series [1] (IC50) required 2.7 nM. The same compound displayed a CL free in series [3] of 1691 mL/min/kg. In series [4], this compound showed a clearance of 61 mL/min/kg. In series [5], this compound showed an MRT of 2.7 h.

In the case of `COC(=O)N1c2ccc(C3(NC(=O)c4ccc(F)cc4)CC3)cc2[C@H]2CC[C@H]21`, the half-maximal inhibitory concentration (IC50) in series [1] turned out to be 2.8 nM; in series [6], 300 nM; in series [7], 4.1 nM. This compound gave a CL free in [3] of 2318 mL/min/kg. For the same compound, the clearance in [4] was determined as 32 mL/min/kg. In series [5], this compound came in with an MRT of 1 h.

In [2], `CC(C)CC(=O)N1CCc2cc(CNC(=O)C3CC3)ccc21` had an inhibition of 35%.

Consider `Cc1nccc(N2CCc3cc(C4(C(=O)Nc5ccc(F)cc5)CCC4)ccc32)n1`, for which the values for the IC50 in series [1] and in [6] were 5.2 nM and 430 nM, respectively.

For `O=C(NC1(c2ccc3c(n2)CCN3C(=O)OC2CC2)CC1)c1ccc(Cl)cc1`, the IC50 in series [1] came to 4.1 nM; in series [6] it was 390 nM; in [7] it was 11 nM. Also, the CL free in [3] was 174 mL/min/kg; in [8], 4800 mL/min/kg. The clearance in series [4] came out at 4.8 mL/min/kg; in series [9] it was 14 mL/min/kg. For the same compound, the values for the MRT in series [5] and in [10] were 2.9 h and 4.9 h, respectively.

As for `Cc1nccc(N2c3ccc(C4(NC(=O)c5ccc(F)cc5)CC4)cc3[C@@H]3CC[C@@H]32)n1`, the values for the IC50 in series [1] and in [6] were 5 nM and 66 nM, respectively.

Consider `CC(=O)N1CCc2cc(CNC(=O)c3cccs3)ccc21`, for which the inhibition in [2] was 72%.

`CCCC(=O)NCc1ccc2c(c1)CCN2C(=O)CC(C)C`: the inhibition in series [2] is 64%.

In the case of `O=C(C1CC1)N1CCc2nc(C3(C(=O)Nc4ccc(F)cc4)CCC3)ccc21`, the figures for the IC50 in series [1], in series [6] and in [7] were 8 nM, 330 nM and 29 nM, respectively. In addition, in [3], the CL free is 668 mL/min/kg. In series [4], this compound yielded a clearance of 60 mL/min/kg. The MRT in series [5] came out at 1.2 h.

In turn, `COC(=O)N1c2ccc(C3(NC(=O)c4ccc(F)cc4)CC3)cc2[C@@H]2CC[C@@H]21` registered an IC50 in series [1] of 5.6 nM. For the same compound, in [3], the CL free came to 2899 mL/min/kg. In series [4], this compound showed a clearance of 29 mL/min/kg. Besides, the MRT in [5] stood at 0.8 h.

Take `O=C(Nc1ccc(Cl)cc1)C1(c2ccc3c(c2)CCN3c2ccccn2)CCC1`: the half-inhibitory concentration (IC50) in [1] was 1.6 nM; in series [6], 640 nM.

In [2], `CC(C)NC(=O)NCc1ccc2c(c1)CCN2C(=O)c1ccccc1` returned an inhibition of 45%.

`O=C(NCc1ccc2c(c1)CCN2C(=O)c1cccc(Cl)c1)c1ccc(Cl)cc1`: the inhibition in series [11] was found to be 90%. The same compound came in with a half-inhibitory concentration (IC50) in series [1] of 90 nM.

In series [2], `CC(C)C(=O)N1CCc2cc(CNC(=O)c3ccc(F)cc3)ccc21` came in with an inhibition of 88%.

With `CCC(=O)N1CCc2cc(CNC(=O)c3ccccc3)ccc21`, the inhibition in series [2] was 87%.

`CC(C)C(=O)N1CCc2cc(CNC(=O)c3cccs3)ccc21` gave an inhibition in series [2] of 100%.

As for `CC(C)C(=O)N1CCc2cc(CNC(=O)c3ccc(Cl)cc3)ccc21`, the inhibition in series [2] turned out to be 92%.

`CCC(=O)NCc1ccc2c(c1)CCN2C(=O)c1ccccc1` registered an inhibition in series [2] of 41%.

Turning to `Cc1nccc(N2c3ccc(C4(NC(=O)c5ccc(F)cc5)CC4)cc3[C@H]3CC[C@H]32)n1`, the IC50 in series [1] was determined as 3.8 nM; in series [6], 64 nM.

`O=C(OC1CC1)N1CCc2cc(C3(C(=O)Nc4ccc(F)cc4)CCC3)ccc21`: the values for the IC50 in [1] and in [7] were 1.4 nM and 0.45 nM, respectively. In [3], the CL free was 7720 mL/min/kg. The same compound had a clearance in series [4] of 87 mL/min/kg. Besides, the mean residence time MRT in series [5] came to 1.8 h.

In turn, `CCC(=O)N1CCc2cc(CNC(=O)c3ccc(F)cc3)ccc21` came in with an inhibition in series [2] of 96%.

`O=C(Nc1ccc(F)cc1)C1(c2ccc3c(n2)CCN3c2ccnc(C(F)(F)F)n2)CCC1`: the 50% inhibitory concentration (IC50) in series [1] was found to be 127 nM.

As to `Cc1nccc(N2c3ccc(C4(NC(=O)c5ccc(F)cc5)CC4)cc3[C@H]3C[C@H]32)n1`, the IC50 in series [1] came out at 2.9 nM; in [6] it was 180 nM. Moreover, in series [4], the clearance was determined as 3.3 mL/min/kg. In addition, the MRT in [5] is 3.6 h.

`CC(C)CC(=O)N1CCc2cc(CNC(=O)c3cccs3)ccc21` displayed an inhibition in series [2] of 100%.

In the case of `O=C(c1cccc(Cl)c1)N1CCc2nc(C3(C(=O)Nc4ccc(F)cc4)CCC3)ccc21`, the IC50 in series [7] was determined as 0.84 nM.

For the compound `Cc1nccc(N2CCc3nc(C4(NC(=O)c5ccc(Cl)cc5)CCC4)ccc32)n1`, 46 nM corresponded to half-maximal inhibition in series [1] (IC50).

As for `O=C(OC1CC1)N1CCc2nc(C3(C(=O)Nc4ccc(Cl)cc4)CCC3)ccc21`, the IC50 was found to be 2 nM in series [1] and 90 nM in [6].

Consider `COCC(=O)NCc1ccc2c(c1)CCN2C(=O)CC(C)C`, for which the inhibition in series [2] came to 20%.

In series [1], `O=C(Nc1ccc(F)cc1)C1(c2ccc3c(c2)CCN3c2ccccn2)CCC1` returned an IC50 of 3.1 nM.

`CC(C)C(=O)N1CCc2cc(CNC(=O)c3ccco3)ccc21` had an inhibition in series [11] of 92%. Moreover, in series [1], the IC50 was found to be 92 nM.

As to `O=C(NC1(c2ccc3c(n2)CCN3c2ccnc(C(F)(F)F)n2)CCC1)c1ccc(Cl)cc1`, the IC50 in series [1] turned out to be 93 nM; in series [6], 240 nM.

As to `CC(C)C(=O)N1CCc2cc(CNC(=O)c3ccccc3)ccc21`, the inhibition in series [2] amounted to 100%.

In series [2], `CC(C)CC(=O)N1CCc2cc(CNC(=O)c3ccco3)ccc21` yielded an inhibition of 100%.

Turning to `Cc1nccc(N2CC3(CC3)c3nc(C4(NC(=O)c5ccc(F)cc5)CC4)ccc32)n1`, the IC50 in [1] is 34 nM. This compound also returned a CL free in [3] of 1176 mL/min/kg. Also, the clearance in [4] was 7.3 mL/min/kg. In [5], this compound returned a mean residence time MRT of 3.4 h.

For the compound `CCC(=O)N1CCc2cc(CNC(=O)c3ccnn3C)ccc21`, the inhibition in [2] was 14%.

Regarding `Cc1nccc(N2c3ccc(C4(NC(=O)c5ccc(F)cc5)CC4)cc3[C@@H]3C[C@@H]32)n1`, half-maximal inhibition in [1] (IC50) required 8.2 nM.

Consider `O=C(Nc1ccc(Cl)cc1)C1(c2ccc3c(n2)CCN3c2ccccn2)CCC1`, for which the figures for the IC50 in series [1], in series [6] and in series [7] were 2.3 nM, 340 nM and 0.34 nM, respectively. This compound returned a CL free in [3] of 35929 mL/min/kg. The clearance in [4] came to 53 mL/min/kg. The compound also came in with an MRT in series [5] of 2.2 h.

As for `CCC(=O)N1CCc2cc(CNC(=O)c3cccc(F)c3)ccc21`, in series [2], the inhibition was 82%.

`CCC(=O)N1CCc2cc(CNC(=O)c3cccc(Cl)c3)ccc21` displayed an inhibition in series [2] of 77%.

`COCCOC(=O)N1CCc2nc(C3(NC(=O)c4ccc(Cl)cc4)CCC3)ccc21` showed a half-inhibitory concentration (IC50) in series [1] of 6.9 nM.

`CCC(=O)N1CCc2cc(CNC(=O)c3cccs3)ccc21`: the inhibition in [2] is 89%.

On to `O=C(NC1(c2ccc3c(n2)C2(CC2)CN3C(=O)OC2CC2)CC1)c1ccc(F)cc1`, for which the IC50 in [1] was 12 nM.

For `O=C(NC1(c2ccc3c(n2)CCN3C(=O)OC2CC2)CCC1)c1ccc(Cl)cc1`, the values for the half-maximal inhibitory concentration (IC50) in [1], in [6] and in series [7] were 4.5 nM, 63 nM and 0.63 nM, respectively. The CL free in series [3] was 2049 mL/min/kg. In addition, the clearance in series [4] came to 20 mL/min/kg. This compound showed an MRT in series [5] of 3.2 h.

Regarding `Cc1nccc(N2CCc3nc(C4(C(=O)Nc5ccc(F)cc5)CCC4)ccc32)n1`, the IC50 in series [1] came to 21 nM; in series [6], 430 nM.

One may read the IC50 as the concentration needed to halve the response being measured. As usually defined, the inhibition is the drop in the measured response relative to a control, in per cent. Read a high inhibition as a response far below the control. What is called clearance is a measure of how efficiently the substance is removed, as volume per time. Read a high clearance as efficient removal. As usually defined, the MRT is a mean duration of stay, worked out from the concentration-time curve.
